Source: patent US7304093B2, “Ketone compounds and compositions for cholesterol management and related uses” (Esperion Therapeutics, Inc., priority 2000, dated 2007)
Where two headings read alike, the source gives them in different places. Marks after values point to notes of the source that are not given here.

Tested on: female obese Zucker rats
Assay: Serum lipid and glycemic control variables in chow-fed obese female Zucker rats, daily oral gavage for two weeks
Type: in vivo, rat
Conditions: for change in vivo at 100 mg/kg: Rattus norvegicus, Table 9; for Glucose / HDL-C / NEFA / Non-HDL-C / TG / Insulin: serum, mean ± SEM; for Insulin: Tables 10, 11
Method in brief: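 Female obese Zucker fa rats, 10–12 wk, 400–500 g, chow-fed, dosed daily by oral gavage for 14 days in CMC/Tween 20 or ethanol/PEG-200 vehicle. After a 6-h fast, serum was sampled pre-dose, day 7 and day 14. Triglycerides, total cholesterol, NEFA and β-hydroxybutyrate were measured, plus lipoprotein cholesterol by gel-filtration profiling.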

CC(C)(CCCCC(=O)CCCCC(C)(C)C(=O)O)C(=O)O [Compound 210c, 7-Oxo-2,2,12,12-tetramethyltridecanedioic acid]
Insulin, percent increase (+) or decrease (−) of the pretreatment control value (10 mg/kg daily oral, 1 wk): (−27) percent | Non-HDL-C, percent increase (+) or decrease (−) of the pretreatment control value (10 mg/kg daily oral, 1 wk): (−35) percent | HDL-C, percent increase (+) or decrease (−) of the pretreatment control value (30 mg/kg daily oral, 1 wk): (+156) percent | NEFA, percent increase (+) or decrease (−) of the pretreatment control value (30 mg/kg daily oral, 1 wk): (−29) percent | Non-HDL-C, percent increase (+) or decrease (−) of the pretreatment control value (30 mg/kg daily oral, 1 wk): (−23) percent | TG, percent increase (+) or decrease (−) of the pretreatment control value (30 mg/kg daily oral, 1 wk): (−33) percent | HDL-C, percent increase (+) or decrease (−) of the pretreatment control value (30 mg/kg daily oral, 2 wk): (+147) percent | HDL-C, percent increase (+) or decrease (−) of the pretreatment control value (100 mg/kg daily oral, 1 wk): (+174) percent | NEFA, percent increase (+) or decrease (−) of the pretreatment control value (100 mg/kg daily oral, 1 wk): (−33) percent | Non-HDL-C, percent increase (+) or decrease (−) of the pretreatment control value (100 mg/kg daily oral, 1 wk): (−42) percent | TG, percent increase (+) or decrease (−) of the pretreatment control value (100 mg/kg daily oral, 1 wk): (−60) percent | HDL-C, percent increase (+) or decrease (−) of the pretreatment control value (100 mg/kg daily oral, 2 wk): (+179) percent | NEFA, percent increase (+) or decrease (−) of the pretreatment control value (100 mg/kg daily oral, 2 wk): (−45) percent | Non-HDL-C, percent increase (+) or decrease (−) of the pretreatment control value (100 mg/kg daily oral, 2 wk): (−29) percent | TG, percent increase (+) or decrease (−) of the pretreatment control value (100 mg/kg daily oral, 2 wk): (−54) percent | change in vivo at 100 mg/kg (168 h, 100 mg/kg daily oral, 1 wk, read-out: HDL-Cholesterol, Percent Change from Pre-Treatment): 54% | change in vivo at 100 mg/kg (168 h, 100 mg/kg daily oral, 1 wk, read-out: NonHDL-Cholesterol, Percent Change from Pre-Treatment): -62% | change in vivo at 100 mg/kg (168 h, 100 mg/kg daily oral, 1 wk, read-out: TG, Percent Change from Pre-Treatment): -74% | change in vivo at 100 mg/kg (336 h, 100 mg/kg daily oral, 2 wk, read-out: HDL-Cholesterol, Percent Change from Pre-Treatment): 78% | change in vivo at 100 mg/kg (336 h, 100 mg/kg daily oral, 2 wk, read-out: NonHDL-Cholesterol, Percent Change from Pre-Treatment): -41% | change in vivo at 100 mg/kg (336 h, 100 mg/kg daily oral, 2 wk, read-out: TG, Percent Change from Pre-Treatment): -69% | Glucose (3 mg/kg daily oral, 1 wk): 99 ± 4 mg/dL | HDL-C (3 mg/kg daily oral, 1 wk): 36 ± 1 mg/dL | NEFA (3 mg/kg daily oral, 1 wk): 1.2 ± 0.16 mg/dL | Non-HDL-C (3 mg/kg daily oral, 1 wk): 24 ± 2 mg/dL | TG (3 mg/kg daily oral, 1 wk): 775 ± 92 mg/dL | Insulin (3 mg/kg daily oral, 1 wk): 10.7 ± 0.8 ng/dL | Glucose (3 mg/kg daily oral, 2 wk): 103 ± 3 mg/dL | HDL-C (3 mg/kg daily oral, 2 wk): 33 ± 1 mg/dL | NEFA (3 mg/kg daily oral, 2 wk): 1.5 ± 0.27 mg/dL | Non-HDL-C (3 mg/kg daily oral, 2 wk): 24 ± 3 mg/dL | TG (3 mg/kg daily oral, 2 wk): 857 ± 103 mg/dL | Insulin (3 mg/kg daily oral, 2 wk): 8.6 ± 0.5 ng/dL | Glucose (10 mg/kg daily oral, 1 wk): 105 ± 3 mg/dL | HDL-C (10 mg/kg daily oral, 1 wk): 47 ± 7 mg/dL | NEFA (10 mg/kg daily oral, 1 wk): 0.92 ± 0.09 | Non-HDL-C (10 mg/kg daily oral, 1 wk): 26 ± 4^a mg/dl | TG (10 mg/kg daily oral, 1 wk): 692 ± 180 mg/dL | Insulin (10 mg/kg daily oral, 1 wk): 7.7 ± 1.0^a ng/dl | Glucose (10 mg/kg daily oral, 2 wk): 113 ± 3 mg/dL | HDL-C (10 mg/kg daily oral, 2 wk): 39 ± 5 mg/dL | NEFA (10 mg/kg daily oral, 2 wk): 1.5 ± 0.28 mg/dL | Non-HDL-C (10 mg/kg daily oral, 2 wk): 27 ± 4 mg/dL | TG (10 mg/kg daily oral, 2 wk): 814 ± 205 mg/dL | Insulin (10 mg/kg daily oral, 2 wk): 8.9 ± 1.3 ng/dL | Glucose (30 mg/kg daily oral, 1 wk): 115 ± 4 mg/dL | HDL-C (30 mg/kg daily oral, 1 wk): 53 ± 8^a mg/dl | NEFA (30 mg/kg daily oral, 1 wk): 1.0 ± 0.11 | Non-HDL-C (30 mg/kg daily oral, 1 wk): 37 ± 4^a mg/dl | TG (30 mg/kg daily oral, 1 wk): 826 ± 92^a mg/dl | Insulin (30 mg/kg daily oral, 1 wk): 9.2 ± 1.3 ng/dL | Glucose (30 mg/kg daily oral, 2 wk): 118 ± 8 mg/dL | HDL-C (30 mg/kg daily oral, 2 wk): 50 ± 9^a mg/dl | NEFA (30 mg/kg daily oral, 2 wk): 1.1 ± 0.20 mg/dL | Non-HDL-C (30 mg/kg daily oral, 2 wk): 43 ± 5 mg/dL | TG (30 mg/kg daily oral, 2 wk): 962 ± 118 mg/dL | Insulin (30 mg/kg daily oral, 2 wk): 8.5 ± 1.8 ng/dL | Glucose (100 mg/kg daily oral, 1 wk): 113 ± 6 mg/dL | HDL-C (100 mg/kg daily oral, 1 wk): 66 ± 9^a mg/dl | NEFA (100 mg/kg daily oral, 1 wk): 0.81 ± 0.07 | Non-HDL-C (100 mg/kg daily oral, 1 wk): 18 ± 3^a mg/dl | TG (100 mg/kg daily oral, 1 wk): 383 ± 49^a mg/dl | Insulin (100 mg/kg daily oral, 1 wk): 9.0 ± 1.0 ng/dL | Glucose (100 mg/kg daily oral, 2 wk): 122 ± 7 mg/dL | HDL-C (100 mg/kg daily oral, 2 wk): 68 ± 10^a mg/dl | NEFA (100 mg/kg daily oral, 2 wk): 0.66 ± 0.06 | Non-HDL-C (100 mg/kg daily oral, 2 wk): 22 ± 3^a mg/dl | TG (100 mg/kg daily oral, 2 wk): 440 ± 58^a mg/dl | Insulin (100 mg/kg daily oral, 2 wk): 9.5 ± 0.9 ng/dL
